Experimental data taken from patent publication US20060052311A1, “Peptide inhibitors of smac protein binding to inhibitor of apoptosis proteins (IAP)” (priority 2002, published 2006).

Tested on: GST-BIR3 fusion protein
Assay: FMAT solution phase assay: competition of GST-BIR3 off beads carrying biotinylated Smac 7-mer peptide
Format: binding
Details: competing GST-BIR3 off beads with immobilized biotinylated Smac 7-mer peptide (AVPIAQK)
Procedure: In order to measure the ability of the inventive compounds to bind the BIR3 peptide binding pocket, a solution phase assay on the FMAT technology platform is utilized. Biotinylated Smac 7-mer peptide (AVPIAQK, lysine ε-amino group is biotinylated) is immobilized on streptavidin coated beads. GST-BIR3 fusion protein is precipitated with FMAT beads and is detected using fluorescent tagged anti-GST antibodies. […] The IC50 for non-biotinylated Smac is 400 nM.

IC50: 400 nM
Substance: non-biotinylated Smac: Non-biotinylated Smac peptide; the biotinylated bead-bound form is the Smac 7-mer AVPIAQK
